The target of assay [1] is T1, SARS-CoV-2 PLpro (nsp3 1564–1878) (Severe acute respiratory syndrome coronavirus 2, UniProt P0DTD1). Description: biochemical. More on the design: FRET-quenched peptide (Pro3) cleavage by PLpro, 10 min pre-incubation, slope over 20 min, normalised to no-compound control. The conditions noted are these: read-out: % of control remaining.
Assay [2] concerns the target T1, SARS-CoV-2 PLpro (nsp3 1564–1878). The assay can be described thus: biochemical. Details: FRET-quenched peptide (Pro3) cleavage by PLpro, 10 min pre-incubation, slope over 20 min, normalised to no-compound control. The following applies: read-out: % of control remaining. The source holds these as a separate data set.

Counter-ions that a name gives are not always drawn. Like-named read-outs stand apart in the source and are kept apart here.

For `Cn1c(=O)c(F)c(Nc2ccc(I)cc2F)c2c(=O)n(C[C@@H](O)CO)cnc21` [TAK-733], in assay [1] (Well no.=4954, low concentration screen), the remaining activity at 1.25 µM was 101%. Besides, the remaining activity at 3.75 µM in assay [2] (Well no.=4954, high concentration screen) is 97.8%.
As to `Cc1ccc(-c2ccc3c(c2)C=C(C(=O)Nc2ccc(C[N+](C)(C)C4CCOCC4)cc2)CCC3)cc1` [TAK-779], in assay [1] (Well no.=8357, low concentration screen), the remaining activity at 1.25 µM is 102%. The remaining activity at 3.75 µM in assay [2] (Well no.=8357, high concentration screen) was determined as 101%.
As to `Cc1cc(OCCCS(C)(=O)=O)cc(C)c1-c1cccc(COc2ccc3c(c2)OC[C@H]3CC(=O)O)c1` [TAK-875], the remaining activity at 1.25 µM in assay [1] (Well no.=4966, low concentration screen) was 96.6%; in assay [1] (Well no.=7771, low concentration screen), 107%. Besides, the remaining activity at 3.75 µM in assay [2] (Well no.=4966, high concentration screen) worked out at 91.6%; in assay [2] (Well no.=7771, high concentration screen), 103%.
For `CCS(=O)(=O)c1cccc(-c2cc(C(=O)NC3CCN(C)CC3)c(C)c3[nH]c4ncc(C)cc4c23)c1` [TAK-901], the remaining activity at 1.25 µM in assay [1] (Well no.=4691, low concentration screen) turned out to be 96.9%. The remaining activity at 3.75 µM in assay [2] (Well no.=4691, high concentration screen) was 100%.
For `Brc1c(Br)c(Br)c2n[nH]nc2c1Br` [TBB - 4,5,6,7-Tetrabromobenzotriazole], the remaining activity at 1.25 µM in assay [1] (Well no.=2494, low concentration screen) came to 100%. The remaining activity at 3.75 µM in assay [2] (Well no.=2494, high concentration screen) is 103%.
As to `O=C1OC(/C=C/c2ccccc2)=NC/1=C/c1cccnc1` [TC-DAPK 6], the remaining activity at 1.25 µM in assay [1] (Well no.=6734, low concentration screen) stood at 96.1%. For the same compound, the remaining activity at 3.75 µM in assay [2] (Well no.=6734, high concentration screen) was 90.3%.
On to `CNc1nc(NCc2ccc(NS(C)(=O)=O)cc2Cl)cc(-c2ccccn2)n1` [TC-G-1008], for which the remaining activity at 1.25 µM in assay [1] (Well no.=7769, low concentration screen) was 98.1%. In addition, the remaining activity at 3.75 µM in assay [2] (Well no.=7769, high concentration screen) was determined as 95.1%.
In the case of `Nc1nccc(/C=C/c2ccccc2)n1` [TCN238], the remaining activity at 1.25 µM in assay [1] (Well no.=7855, low concentration screen) turned out to be 99.5%. The remaining activity at 3.75 µM in assay [2] (Well no.=7855, high concentration screen) was found to be 94.5%.
Regarding `O=C(NNC(=O)c1ccc(CNS(=O)(=O)c2ccc(F)c(Cl)c2)cc1)c1ccccc1` [TCN-201], the remaining activity at 1.25 µM in assay [1] (Well no.=5514, low concentration screen) is 96.4%. Besides, in assay [2] (Well no.=5514, high concentration screen), the remaining activity at 3.75 µM was 97.4%.
Turning to `Clc1cnc(Oc2ccc(Oc3ncc(Cl)cc3Cl)cc2)c(Cl)c1` [TCPOBOP], the remaining activity at 1.25 µM in assay [1] (Well no.=1425, low concentration screen) came out at 102%. Further, the remaining activity at 3.75 µM in assay [2] (Well no.=1425, high concentration screen) came to 102%.
For the compound `COc1ccc(C(=O)Nc2sc3c(c2C(N)=O)CCCC3)cc1OC` [TCS 359 - 2-[(3,4-Dimethoxybenzoyl)amino]-4,5,6,7-benzo[b]thiophene-3-carboxamide], the remaining activity at 1.25 µM in assay [1] (Well no.=2580, low concentration screen) stood at 93.7%. Also, the remaining activity at 3.75 µM in assay [2] (Well no.=2580, high concentration screen) turned out to be 90%.
For the compound `Cn1c(SCC(=O)N2CCC[C@H]2C(=O)Nc2ccccc2-c2ccccc2)nc2ccccc21` [TCS 1102], the remaining activity at 1.25 µM in assay [1] (Well no.=8429, low concentration screen) was found to be 98.6%. In addition, in assay [2] (Well no.=8429, high concentration screen), the remaining activity at 3.75 µM was 98.6%.
Turning to `COc1cc2c(cc1OC)CN(C(=O)[C@@H](NCc1ccncc1)C(C)(C)C)CC2` [TCS-OX2-29], in assay [1] (Well no.=6993, low concentration screen), the remaining activity at 1.25 µM turned out to be 107%. Moreover, in assay [2] (Well no.=6993, high concentration screen), the remaining activity at 3.75 µM stood at 101%.
Regarding `CC1(C)CC(O)CC(C)(C)N1[O]` [TEMPOL], the remaining activity at 1.25 µM in assay [1] was 93.1%. Moreover, the remaining activity at 3.75 µM in assay [2] was 95.9%.
The corresponding values for `CC1(C)CCCC(C)(C)N1[O]` [TEMPO] are 95.5% and 99.1%.
For `CCSC(N)=Nc1ccc(C(F)(F)F)cc1` [TFPI hydrochloride], the remaining activity at 1.25 µM in assay [1] (Well no.=1389, low concentration screen) turned out to be 95.8%. The remaining activity at 3.75 µM in assay [2] (Well no.=1389, high concentration screen) was determined as 93.8%.
For the compound `Nc1nc(N)c2nc(-c3cccc(O)c3)c(-c3cccc(O)c3)nc2n1` [TG100-115], the remaining activity at 1.25 µM in assay [1] (Well no.=4846, low concentration screen) was found to be 99.1%. The remaining activity at 3.75 µM in assay [2] (Well no.=4846, high concentration screen) worked out at 99.1%.
Regarding `Cc1cnc(Nc2ccc(N3CCN(C)CC3)cc2)nc1Nc1cccc(S(=O)(=O)NC(C)(C)C)c1` [TG101209], the remaining activity at 1.25 µM in assay [1] (Well no.=2805, low concentration screen) was 94%. In assay [2] (Well no.=2805, high concentration screen), the remaining activity at 3.75 µM came out at 96.7%.
Consider `Cc1cnc(Nc2ccc(OCCN3CCCC3)cc2)nc1Nc1cccc(S(=O)(=O)NC(C)(C)C)c1` [TG101348], for which the remaining activity at 1.25 µM in assay [1] (Well no.=2853, low concentration screen) turned out to be 95.4%. Besides, the remaining activity at 3.75 µM in assay [2] (Well no.=2853, high concentration screen) came to 98.3%.
For the compound `O=c1[nH]oc2c1CCNC2` [THIP hydrochloride], the remaining activity at 1.25 µM in assay [1] (Well no.=1328, low concentration screen) came to 96.3%. Besides, the remaining activity at 3.75 µM in assay [2] (Well no.=1328, high concentration screen) turned out to be 97.2%.
Turning to `Cc1ccccc1CN1C(=O)C2=C(CCN(Cc3ccccc3)C2)N2CCN=C12` [TIC10], the remaining activity at 1.25 µM in assay [1] amounted to 97.7%. Also, the remaining activity at 3.75 µM in assay [2] was found to be 96.2%.
As for `Cc1cc(COc2nc(N)nc3ccn(Cc4ccccn4)c23)no1` [TLR7 agonist 2], the remaining activity at 1.25 µM in assay [1] (Well no.=8227, low concentration screen) amounted to 106%. For the same compound, the remaining activity at 3.75 µM in assay [2] (Well no.=8227, high concentration screen) was 103%.
As to `CCCCc1nc2c(N)nc3ccccc3c2n1Cc1ccc(CN)cc1` [TLR7/8 agonist 1 (dihydrochloride)], in assay [1] (Well no.=8259, low concentration screen), the remaining activity at 1.25 µM came out at 102%. Besides, the remaining activity at 3.75 µM in assay [2] (Well no.=8259, high concentration screen) was found to be 99.6%.
Turning to `O=C(COCC(=O)Nc1ccc(Cl)cc1C(=O)O)Nc1cccc(-c2ccoc2)c1` [TM5441], in assay [1] (Well no.=6540, low concentration screen), the remaining activity at 1.25 µM was 109%. For the same compound, in assay [2] (Well no.=6540, high concentration screen), the remaining activity at 3.75 µM was determined as 105%.
Consider `CCN(CC)CCCCCCCCOC(=O)c1cc(OC)c(OC)c(OC)c1` [TMB-8 hydrochloride], for which the remaining activity at 1.25 µM in assay [1] (Well no.=101, low concentration screen) was 104%. For the same compound, the remaining activity at 3.75 µM in assay [2] (Well no.=101, high concentration screen) came to 104%.
As to `CP(=O)(O)C1=CCNCC1` [TPMPA], the remaining activity at 1.25 µM in assay [1] (Well no.=1474, low concentration screen) was 100%. Further, in assay [2] (Well no.=1474, high concentration screen), the remaining activity at 3.75 µM came to 102%.
Regarding `COc1cccc(OC)c1-c1ccc(C[C@H](NC(=O)c2c(Cl)cccc2Cl)C(=O)O)cc1` [TR-14035], in assay [1] (Well no.=8514, low concentration screen), the remaining activity at 1.25 µM worked out at 96.3%. In assay [2] (Well no.=8514, high concentration screen), the remaining activity at 3.75 µM came out at 93.8%.
In the case of `Clc1ccccc1C(c1ccccc1)(c1ccccc1)n1cccn1` [TRAM-34], in assay [1] (Well no.=4707, low concentration screen), the remaining activity at 1.25 µM was 107%. Moreover, the remaining activity at 3.75 µM in assay [2] (Well no.=4707, high concentration screen) was determined as 103%.
Turning to `CC(C)C[C@H](NC(=O)[C@H](CC(C)C)NC(=O)[C@H](Cc1ccccc1)NC(=O)[C@@H](N)CO)C(=O)N[C@@H](CCCN=C(N)N)C(=O)N[C@@H](CC(N)=O)C(=O)O` [TRAP-6], the remaining activity at 1.25 µM in assay [1] (Well no.=6278, low concentration screen) amounted to 101%; in assay [1] (Well no.=8364, low concentration screen) it was 98.5%. Further, the remaining activity at 3.75 µM in assay [2] (Well no.=6278, high concentration screen) was found to be 103%; in assay [2] (Well no.=8364, high concentration screen), 97.2%.
In the case of `COC(=O)[C@H](Cc1c[nH]c2ccccc12)N(Cc1ccccc1)Cc1ccccc1` [TRPM8 antagonist 2], the remaining activity at 1.25 µM in assay [1] (Well no.=7732, low concentration screen) stood at 95.3%. The remaining activity at 3.75 µM in assay [2] (Well no.=7732, high concentration screen) was determined as 97.5%.
Take `Cc1[nH]c(/C=C2\C(=O)Nc3ccccc32)c(C)c1CCC(=O)O` [TSU-68 (SU6668)]: in assay [1] (Well no.=4899, low concentration screen), the remaining activity at 1.25 µM came to 99.4%. Further, in assay [2] (Well no.=4899, high concentration screen), the remaining activity at 3.75 µM turned out to be 95.8%.
For `C/C(=C\c1ccc(C(=O)O)cc1)c1ccc2c(c1)C(C)(C)CCC2(C)C` [TTNPB], the remaining activity at 1.25 µM was 97.8% in assay [1] (Well no.=1429, low concentration screen) and 93% in assay [1] (Well no.=4436, low concentration screen). Moreover, the remaining activity at 3.75 µM in assay [2] (Well no.=1429, high concentration screen) came to 99.8%; in assay [2] (Well no.=4436, high concentration screen), 100%.
In the case of `C#CCN[C@@H]1CCc2ccccc21` [TVP1022], the remaining activity at 1.25 µM in assay [1] (Well no.=5527, low concentration screen) came out at 101%. In assay [2] (Well no.=5527, high concentration screen), the remaining activity at 3.75 µM came to 112%.

For the origin of these results see article PMC8286840, “Identifying SARS-CoV-2 antiviral compounds by screening for small molecule inhibitors of Nsp3 papain-like protease” (Biochemical Journal, 2021).
